Laboratory results taken from article PMC5731250 (Cell, 2017).
Where two headings read alike, the source gives them in different places.

How the values were obtained:
male C57BL/6J mice [1] = assay: animal or person; type: in vivo; settings: Mus musculus, ip, 1 h, read-out: ED50 (95% confidence intervals) Hot Plate
male C57BL/6J mice [2] = assay: animal or person; type: in vivo; settings: Mus musculus, ip, 1 h, read-out: ED50 (95% confidence intervals) Tail Flick
in vivo = settings: male, C57BL/6J, mouse, ip
MOR = settings: operational model; ref DeWire et al., 2013; cited from earlier work

SMILES: CN1CC[C@]23c4c5ccc(O)c4O[C@H]2[C@@H](O)C=C[C@H]3[C@H]1C5 [Morphine]
- ED50 (male C57BL/6J mice [1]): 5.9 mg/kg
- ED50 (male C57BL/6J mice [2]): 3.8 mg/kg
- ED50 (in vivo): 33 mg/kg
- ED50 (in vivo; ED50 (95% confidence intervals) %O2 Saturation): 79 mg/kg

SMILES: COc1ccsc1CNCC[C@@]1(c2ccccn2)CCOC2(CCCC2)C1 [TRV-130]
- bias factor (G protein signaling over βarrestin pathway) (MOR): 3
